Columns and labels:
[1] = system: ORYZA; experiment: Pre-emergence effects on crop plants; format: in vivo, Oryza sativa; settings: crop plant
Excerpt: (§1) Seeds of mono- and dicotyledonous weed plants and crop plants were sown, in plastic or organic planting pots, in sandy loam and covered with soil. The compounds according to the invention, formulated in the form of wettable powders (WP) or as emulsifiable concentrates (EC), were applied to the surface of the covering soil as aqueous suspension or emulsion, with the addition of 0.5% of an additive, at an application rate of 600 1 of water/ha (converted). Following treatment, the pots were placed in a greenhouse and kept under optimum growth conditions for the test plants. The visual grading of the damage to the test plants was carried out after ca. 3 weeks in comparison to untreated controls (herbicidal effect in percent (%): 100% effect = plants have died off, 0% effect = as control plants). Tables D1 to D5 below show the effects of various compounds of the general formula (I) according to Table 1 on various crop plants and an application rate corresponding to 320 g/ha or below obtained by the experimental procedure mentioned above in Biological Examples, Section C. Table […]: pre-emergence activity at 320g/ha against ZEAMX in %

[2] = system: ZEAMX; experiment: Pre-emergence effects on crop plants; format: in vivo, Zea mays; settings: crop plant
Excerpt: as §1

[3] = system: MATIN; experiment: Herbicidal post-emergence action - Part I; format: in vivo, Matricaria inodora; settings: one-leaf stage, rated visually after about 3 weeks vs untreated controls
Summary of the method: (§2)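 Greenhouse weeds grown in sandy loam were sprayed post-emergence at the one-leaf stage, 2-3 weeks after sowing. Compounds were applied as WP or EC in water with 0.5% additive at 600 L/ha, at 1280 g/ha or below. Visual damage was rated after about 3 weeks versus untreated plants (0-100%).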

[4] = system: TRZAS; experiment: Post-emergence effects on crop plants; format: in vivo, Triticum aestivum; settings: crop plant
Summary of the method: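 Crop plants were grown in sandy loam in the greenhouse and sprayed at the single-leaf stage, 2–3 weeks after sowing, with WP or EC formulations plus 0.5% additive in 600 l water/ha, at rates of 320 g/ha or below. Injury was scored visually about 3 weeks later as % effect versus untreated controls (100% = plants dead).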

[5] = system: ALOMY; experiment: Herbicidal pre-emergence action - Part II; format: in vivo, Alopecurus myosuroides; settings: visual grading after ca. 3 weeks vs untreated controls
Excerpt: (§3) Seeds of mono- and dicotyledonous weed plants and crop plants were sown, in plastic or organic planting pots, in sandy loam and covered with soil. The compounds according to the invention, formulated in the form of wettable powders (WP) or as emulsifiable concentrates (EC), were applied to the surface of the covering soil as aqueous suspension or emulsion, with the addition of 0.5% of an additive, at an application rate of 600 1 of water/ha (converted). Following treatment, the pots were placed in a greenhouse and kept under optimum growth conditions for the test plants. The visual grading of the damage to the test plants was carried out after ca. 3 weeks in comparison to untreated controls (herbicidal effect in percent (%): 100% effect = plants have died off, 0% effect = as control plants). Tables C1 to C12 below show the effects of selected compounds of the general formula (I) according to table 1 on various harmful plants and an application rate corresponding to 320 g/ha or below obtained by the experimental procedure mentioned above. Table C1: pre-emergence activity at 320g/ha against ABUTH in %

[6] = system: STEME; experiment: Herbicidal post-emergence action - Part I; format: in vivo, Stellaria media; settings: 1280 g/ha, one-leaf stage, rated visually after about 3 weeks vs untreated controls
Summary of the method: as §2

[7] = system: STEME; experiment: Herbicidal pre-emergence action - Part I; format: in vivo, Stellaria media; settings: visual grading after ca. 3 weeks vs untreated controls
Summary of the method: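 Weed seeds sown in sandy loam pots (one mono- and one dicot species per pot) and covered with soil; compounds as WP or EC applied to covering soil surface as aqueous suspension/emulsion with 0.5% additive at 600 l water/ha, rates 1280 g/ha or below. Greenhouse; visual damage rated after ca. 3 weeks vs untreated (0–100%).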

[8] = system: DIGSA; experiment: Herbicidal pre-emergence action - Part II; format: in vivo, Digitaria sanguinalis
Excerpt: as §3

[9] = system: KCHSC; experiment: Herbicidal post-emergence action - Part I; format: in vivo, Kochia scoparia; settings: one-leaf stage, rated visually after about 3 weeks vs untreated controls
Summary of the method: as §2

[10] = system: TRZAS; experiment: Pre-emergence effects on crop plants; format: in vivo, Triticum aestivum; settings: crop plant
Excerpt: as §1

[11] = system: BRSNW; experiment: Post-emergence effects on crop plants; format: in vivo, Brassica napus; settings: crop plant
Excerpt: Seeds of mono- and dicotyledonous weed plants and crop plants were sown, in plastic or organic planting pots, in sandy loam, covered with soil and grown in a greenhouse under controlled growth conditions. 2 to 3 weeks after sowing, the test plants were sprayed in the single-leaf stage. The compounds according to the invention, formulated in form of wettable powders (WP) or as emulsifiable concentrates (EC), were sprayed onto the green plant parts as aqueous suspension or emulsion, with the addition of 0.5% of an additive, at an application rate of 600 1 of water/ha (converted). The test plants were placed in the greenhouse for ca. 3 weeks under optimum growth conditions, and then the effect of the preparations was assessed visually in comparison with untreated controls (herbicidal effect in percent (%): 100% effect = plants have died off, 0% effect = as control plants). Tables F1 to F5 below show the effects of selected compounds of the general formula (I) according to table 1 on various crop plants and an application rate corresponding to 320 g/ha or below obtained by the experimental procedure mentioned above. Table […]: post-emergence activity at 5g/ha against ZEAMX in %

[12] = 80 g/ha, table titled F4c (BRSNW)

With Cc1ccsc1C1=NOC2(CCCN(Cc3c(F)cccc3F)C2=O)C1 (racemic) [Compound I-2] the “pre-emergence activity against ORYZA” value ([1]; 80 g/ha, Table D3b) was 0%, the “pre-emergence activity against ZEAMX” value ([2]; 80 g/ha, Table D1b) was 0% and the “pre-emergence activity against ZEAMX” value ([2]; 320 g/ha, Table D1a) was 0%. The “post-emergence activity at 320g/ha against MATIN in %” value [3] was 90%, the “post-emergence activity at 1280g/ha against MATIN in %” value [3] was 90% and the “post-emergence activity against TRZAS” value ([4]; 80 g/ha, Table F2c) was 0%. For the same compound, the “post-emergence activity against TRZAS” value ([4]; 320 g/ha, Table F2d) was 0%, the “pre-emergence activity at 320g/ha against ALOMY in %” value [5] was 90% and the “post-emergence activity at 1280g/ha against STEME in %” value [6] was 90%. The “pre-emergence activity at 80g/ha against STEME in %” value ([7]; 80 g/ha) was 90%, the “pre-emergence activity at 320g/ha against STEME in %” value [7] was 90% and the “pre-emergence activity at 1280g/ha against STEME in %” value [7] was 90%. The “pre-emergence activity against DIGSA” value ([8]; 80 g/ha, Table C5b) was 90%, the “pre-emergence activity against DIGSA” value ([8]; 320 g/ha, Table C5a) was 100% and the “post-emergence activity at 320g/ha against KCHSC in %” value [9] was 90%. For the same compound, the “post-emergence activity at 1280g/ha against KCHSC in %” value [9] was 90%, the “pre-emergence activity against TRZAS” value ([10]; 80 g/ha, Table D2b) was 0% and the “post-emergence activity against BRSNW” value [11, 12] was 10%.
For Cc1ccsc1C1=NOC2(CCN(Cc3c(F)cccc3F)C2=O)C1 (racemic) [Compound I-16, 7-(2,6-Difluorobenzyl)-3-(3-methyl-2-thienyl)-1-oxa-2,7-diazaspiro[4.4]non-2-en-6-one], the “pre-emergence activity against ORYZA” value ([1]; 80 g/ha, Table D3b) was 0%, the “pre-emergence activity against ORYZA” value ([1]; Table D3a, title: 320g/ha, application rate: 80 g/ha) was 20% and the “pre-emergence activity against ZEAMX” value ([2]; 80 g/ha, Table D1b) was 10%. For the same compound, the “pre-emergence activity against ZEAMX” value ([2]; 320 g/ha, Table D1a) was 20%, the “post-emergence activity at 1280g/ha against MATIN in %” value [3] was 90% and the “post-emergence activity against TRZAS” value ([4]; 80 g/ha, Table F2c) was 0%. For the same compound, the “post-emergence activity against TRZAS” value ([4]; 320 g/ha, Table F2d) was 0%, the “pre-emergence activity at 320g/ha against ALOMY in %” value [5] was 80% and the “post-emergence activity at 1280g/ha against STEME in %” value [6] was 90%. The “pre-emergence activity at 1280g/ha against STEME in %” value [7] was 90%, the “pre-emergence activity against DIGSA” value ([8]; 320 g/ha, Table C5a) was 80% and the “post-emergence activity at 1280g/ha against KCHSC in %” value [9] was 90%. The “pre-emergence activity against TRZAS” value ([10]; 80 g/ha, Table D2b) was 10%, the “pre-emergence activity against TRZAS” value ([10]; Table D2a, title: 320g/ha, application rate: 80 g/ha) was 10% and the “post-emergence activity against BRSNW” value [11, 12] was 0%. The “post-emergence activity against BRSNW” value ([11]; table titled F4d (BRSNW), title: 320 g/ha, application rate: 80 g/ha) was 0%.
With O=C1N(Cc2ccccc2F)CCC12CC(c1c(F)cccc1F)=NO2 (racemic) [Compound I-10] the “pre-emergence activity against ORYZA” value ([1]; 80 g/ha, Table D3b) was 0%, the “pre-emergence activity against ZEAMX” value ([2]; 80 g/ha, Table D1b) was 0% and the “pre-emergence activity against ZEAMX” value ([2]; 320 g/ha, Table D1a) was 0%. The “post-emergence activity at 320g/ha against MATIN in %” value [3] was 90%, the “post-emergence activity at 1280g/ha against MATIN in %” value [3] was 90% and the “post-emergence activity against TRZAS” value ([4]; 80 g/ha, Table F2c) was 0%. For the same compound, the “post-emergence activity against TRZAS” value ([4]; 320 g/ha, Table F2d) was 10%, the “pre-emergence activity at 320g/ha against ALOMY in %” value [5] was 80% and the “post-emergence activity at 1280g/ha against STEME in %” value [6] was 90%. The “pre-emergence activity at 320g/ha against STEME in %” value [7] was 90%, the “pre-emergence activity at 1280g/ha against STEME in %” value [7] was 90% and the “pre-emergence activity against DIGSA” value ([8]; 320 g/ha, Table C5a) was 90%. For the same compound, the “post-emergence activity at 320g/ha against KCHSC in %” value [9] was 90%, the “post-emergence activity at 1280g/ha against KCHSC in %” value [9] was 90% and the “pre-emergence activity against TRZAS” value ([10]; 80 g/ha, Table D2b) was 0%. The “post-emergence activity against BRSNW” value [11, 12] was 0%.

From patent EP4509511A1, “SUBSTITUTED SPIRO-ISOXAZOLINYL LACTAMS, SALTS THEREOF AND THEIR USE AS HERBICIDALLY ACTIVE SUBSTANCES” (Bayer Aktiengesellschaft, priority 2023, dated 2025)
